Results from patent US12599560B2, “Lipids and lipid nanoparticle formulations” (Longuide Biopharma Corporation, priority 2023, dated 2026).

Columns and labels:
[1] = Osmotic pressure by freezing point osmometer; type: physicochemical; settings: formulation No. 1, molar ratio 1.50:20:33.50:45.00
Procedure: 50 μL of the nucleic acid lipid nanoparticle solution (containing about 0.04 mg/mL mRNA) was taken and the osmotic pressure of the nanopreparation was detected by freezing point penetrometer (Gonotec GmbH, OSMOMAT 3000-D).

DC2.4 cells [2] = test: Cytotoxicity assay (CCK-8), DC2.4; type: cell-based; settings: formulation No. 2
Procedure: (§1) A549 cells were digested and collected the day before treatment and the cell concentration was adjusted to 2*10^5 cells/mL, 200 μL cell culture medium with a concentration of 2*10^5 cells/mL was added to the 96-well plate, resulting in approximately 4*10^4 cells per well in the 96-well plate. Digested and collected DC2.4 cells and adjusted the cell concentration to 1*10^5 cells/mL, added 200 μL cell culture medium with a concentration of 1*10^5 cells/mL to the 96-well plate, so that the number of cells per well in the 96-well plate is approximately 2*10^4. The cells were incubated in a cell culture incubator (Esco Micro Pte Ltd, Singapore, CLM-170B-8-NF) at 37° C. 5% CO2 for 24 h.
(§2) On the day of cell treatment, the medium (Thermo Fisher Scientific) was aspirated from the 96-well plate, 200 μL of PBS was added to each well to rinse the cells and then the PBS (Thermo Fisher Scientific) was removed, and 180 μL of opti-MEM (Thermo Fisher Scientific) was added to each well of the treatment group.
(§3) Different volumes of the preparation were taken and diluted by adding the buffer used for the preparation or the buffer used for dialysis, and four dosing concentrations were prepared for each preparation, and 20 μL of the diluted nanopreparation was added to each well of a 96-well plate (3 replicate wells for each concentration), and the dosing concentrations of the preparation were about 50 ng mRNA/well, 100 ng mRNA/well, 200 ng mRNA/well, and 300 ng mRNA/well, respectively.
(§4) The 96-well cell culture plate was placed in a cell culture incubator and incubated at 37° C. 5% CO2 for 4 h. The medium was sucked up, and 200 μL of DMEM complete medium was added to each well and incubated for 20 h for detection.
Diluted CCK-8 detection reagent (Shanghai Beyotime Biotechnology Co., Ltd.) masterbatch (900 μL complete medium+100 μL CCK-8 detection reagent) with DMEM complete medium at 9:1 to prepare CCK-8 working solution.
Take out the 96-well cell culture plate and removed the supernatant. Before detection, the 96-well plate was added with 100 μL CCK-8 working solution, incubated in the cell culture incubator at 37° C. 5% CO2 for 2 h, and analyzed by plate reader. The cell viability was calculated to reflect the cytotoxicity.

[3] = Nucleic acid encapsulation efficiency by fluorescence (RiboGreen); type: physicochemical
Procedure: The nucleic acid encapsulation rate of the nucleic acids lipid nanoparticle formulations obtained in steps 6, 7, and 8 can be determined by fluorescence methods, such as using the Quant-iT™ RiboGreen RNA Quantification Kit (Thermo Fisher Scientific). Take the RiboGreen RNA Quantification Kit as an example: Configure the low-range working solution and mRNA standard solution according to the instructions. Take 3 μL of the nucleic acid lipid nanoparticle solution obtained in step 6, add 297 μL of the Tris-EDTA buffer (TE buffer) provided with the kit, mix well, and then suck up 100 μL of it into the black-bottomed ninety-six-well plate, and then add 100 μL of the RiboGreen low-range detection working solution. Add 100 μL of different concentrations of mRNA standard solution into the black bottom 96-well plate, and add 100 μL of RiboGreen low-range detection working solution. After gently blowing and mixing well, incubate for 5 minutes away from light, and then immediately detect and record the fluorescence signal intensity using a multifunctional enzyme labeling instrument (BMG LABTECH, FLUOstar Omega). The free mRNA content not encapsulated by the lipid nanoparticles was calculated by standard curve fitting and calculation, and then divided by the total amount of mRNA in the wells detected to find the nucleic acid encapsulation rate of this nucleic acid lipid nanoparticle preparation.

A549 cells = test: Cell transfection assay (D-Luciferin), A549; type: cell-based
Procedure: as §1, §2, §3, §4
(§5) D-Luciferin (Biohub International Trade Co., Ltd.) stock solution (9900 μL of complete medium+100 μL of 25 mg/mL of D-Luciferin stock solution) was diluted with DMEM complete medium at 99:1 to make a working solution at the concentration of 250 μg/mL (25 μg per well).
(§6) The 96-well cell culture plate was taken out and the supernatant was removed. Before imaging, the 96-well plate was added with 100 μL of D-Luciferin working solution, incubated at 37° C. for 5 min, and imaged and analyzed by the plate reader.

DC2.4 cells [4] = test: Cell transfection assay (D-Luciferin), DC2.4; type: cell-based
Procedure: as §1, §2, §3, §4, §5, §6

SMILES: CCCCCCCCCCCCOC(=O)C(O)CN(CCCN1CCN(CCCN(CC(O)C(=O)OCCCCCCCCCCCC)CC(O)C(=O)OCCCCCCCCCCCC)CC1)CC(O)C(=O)OCCCCCCCCCCCC (stereo not shown) [Compound L0191]
- osmotic pressure [1]: 2139
- DC2.4 cellular tox (% cells alive) (DC2.4 cells [2]; 50 ng/well): 95.97%
- DC2.4 cellular tox (% cells alive) (DC2.4 cells [2]; 100 ng/well): 87.33%
- DC2.4 cellular tox (% cells alive) (DC2.4 cells [2]; 200 ng/well): 75.79%
- DC2.4 cellular tox (% cells alive) (DC2.4 cells [2]; 300 ng/well): 92.20%
- encapsulation efficiency (in words) ([3]; all tested formulations): high
- encapsulation efficiency ([3]; formulation No. 1, molar ratio 1.50:20:33.50:45.00): 96.26%
- encapsulation efficiency ([3]; formulation No. 2, molar ratio 1.50:11.50:38.50:48.50): 97.92%
- transfection efficiency (in words) (A549 cells; all tested formulations, A549 and DC2.4 cells): high
- A549 transfection/RLU (A549 cells; formulation No. 1 (1.50:20:33.50:45.00), 50 ng/well): 61522.00 RLU
- A549 transfection/RLU (A549 cells; formulation No. 1, 100 ng/well): 80557.33 RLU
- A549 transfection/RLU (A549 cells; formulation No. 1, 200 ng/well): 81404.33 RLU
- A549 transfection/RLU (A549 cells; formulation No. 1, 300 ng/well): 84806.33 RLU
- A549 transfection/RLU (A549 cells; formulation No. 2 (1.50:11.50:38.50:48.50), 50 ng/well): 31491.33 RLU
- A549 transfection/RLU (A549 cells; formulation No. 2, 100 ng/well): 54866.67 RLU
- A549 transfection/RLU (A549 cells; formulation No. 2, 200 ng/well): 90775.67 RLU
- A549 transfection/RLU (A549 cells; formulation No. 2, 300 ng/well): 88154.33 RLU
- DC2.4 cell transfection/RLU (DC2.4 cells [4]; formulation No. 1, 50 ng/well): 44580.00 RLU
- DC2.4 cell transfection/RLU (DC2.4 cells [4]; formulation No. 1, 100 ng/well): 38457.67 RLU
- DC2.4 cell transfection/RLU (DC2.4 cells [4]; formulation No. 1, 200 ng/well): 51212.00 RLU
- DC2.4 cell transfection/RLU (DC2.4 cells [4]; formulation No. 1, 300 ng/well): 49462.00 RLU
- DC2.4 cell transfection/RLU (DC2.4 cells [4]; formulation No. 2, 50 ng/well): 22385.67 RLU
- DC2.4 cell transfection/RLU (DC2.4 cells [4]; formulation No. 2, 100 ng/well): 31266.67 RLU
- DC2.4 cell transfection/RLU (DC2.4 cells [4]; formulation No. 2, 200 ng/well): 45175.33 RLU
- DC2.4 cell transfection/RLU (DC2.4 cells [4]; formulation No. 2, 300 ng/well): 66928.33 RLU
